Test results published in patent EP0530016B1, “Piperidine derivative and pharmaceutical composition containing it” (Ajinomoto Co., Inc., priority 1991, dated 1993).

Key:
[1] = test system: spontaneously hypertensive rats; assay: Antihypertensive effect after intravenous bolus injection, tail-cuff systolic blood pressure; assay type: in vivo; conditions: dose 10 mg/kg, reduction in systolic blood pressure from basal values, male spontaneously hypertensive rats
Protocol: Two male spontaneously hypertensive rats (body weight 400-440g) and in which hypertension was confirmed were used as test animals. These were obtained from Charles River Japan (Kanagawa, Japan) and were maintained in a pathogen free state until used.
An aqueous solution of the derivative prepared in Example 1 above in physiological saline containing 2.5% Nicolle TM and 2.5% ethanol was intravenously administered by bolus injection in a does of 1ml per 1 kg body weight. Systolic blood pressure (SBP) after administration was measured by an indirect (tail-cuff) method. The antihypertensive effect was shown as a reduction in blood pressure (mmHg) from the basal values.

[2] = test system: spontaneously hypertensive rats; assay: Antihypertensive effect after oral administration, tail-cuff systolic blood pressure; assay type: in vivo; conditions: dose 6 mg/kg, reduction in systolic blood pressure from basal values, male spontaneously hypertensive rats; for dSBP (mmHg) 2hr: 2hr after administration; for dSBP (mmHg) 6hr: 6hr after administration
Protocol: Four male spontaneously hypertensive rats (body weight 400-440g) and in which hypertension was confirmed were used. These were obtained from Charles River Japan (Kanagawa, Japan and were maintained in a pathogen free state until used.
A 5% arabic gum aqueous suspension of each sample was administered orally in a dose of 1ml per kg body weight. Systolic blood pressure after administration was measured by an indirect (tail-cuff) method. Antihypertensive effect was shown as a reduction in blood pressure (mmHg) from the basal values.

[3] = test system: platelet aggregation induced by a combination of ADP and serotonin; assay: Inhibition of the increased platelet aggregation caused by serotonin in platelet rich plasma; assay type: cell-based; conditions: Oryctolagus cuniculus; rabbit platelet rich plasma; ADP (1.5»M) and serotonin (5»M); 50% inhibition of the increased platelet aggregation caused by serotonin
Protocol: Blood was obtained from rabbit and was treated with 3.8% sodium citrate. Platelet rich plasma (PRP) was prepared by centrifugation at 1200 rpm for 10 min at room temperature. The platelet aggregation induced by adenosine diphosphate (ADP) (1.5»M) and by a combination of ADP (1.5»M) and serotonin (5»M) was measured. Then the concentration of piperidine derivative required to produce 50% inhibition of the increased platelet aggregation caused by serotonin compared with the control was calculated as IC50.

Row | Compound | dSBP (mmHg) 0.5hr ([1]; 0.5hr after administration) | dSBP (mmHg) 4hr ([1]; 4hr after administration) | dSBP (mmHg) 2hr [2] | dSBP (mmHg) 6hr [2] | IC50 [3]
1 | NS(=O)(=O)c1ccc(C=CCN2CCC(=C3c4ccccc4C=Cc4ccccc43)CC2)cc1 [Example 1, 1-(4-Aminosulfonylcinnamyl)-4-(5H-dibenzo[a,d]cyclohepten-5-ylidene)piperidine] | -83 mmHg | -95 mmHg | -37 mmHg | -48 mmHg | 0.2 µM
2 | NS(=O)(=O)c1ccc(C=CCN2CCC(=C3c4ccccc4CSc4ccccc43)CC2)cc1 [Example 2, 11-[1-(4-Aminosulfonylcinnamyl)-4-piperidinylidene]-6,11-dihydrodibenzo[b,e]thiepin] |  |  | -31 mmHg | -43 mmHg | 0.251 µM
